# Data published in paper PMC5218480 (PLoS ONE, 2017).
# System: MV-4-11 cells
# Assay: Gene expression microarray analysis (Affymetrix PrimeView) and GSEA
# Format: cell-based, human
# Set-up: RFU PODN (11730768_x_at) / Fold change /veh PODN (11730768_x_at) / RFU LINC00158 (11744669_a_at) / Fold change /veh LINC00158 (11744669_a_at) / RFU DUSP10 (11751237_a_at) / Fold change /veh DUSP10 (11751237_a_at) / RFU ID3 (11757404_x_at) / Fold change /veh ID3 (11757404_x_at) / RFU PLEKHG5 (11737974_s_at) / Fold change /veh PLEKHG5 (11737974_s_at) / RFU LRRC4B (11730491_at) / Fold change /veh LRRC4B (11730491_at) / RFU GIMAP4 (11747438_a_at) / Fold change /veh GIMAP4 (11747438_a_at) / RFU KRT8 (11758183_x_at) / Fold change /veh KRT8 (11758183_x_at) / RFU CNN1 (11734310_a_at) / Fold change /veh CNN1 (11734310_a_at) / RFU VPS37D (11726825_at) / Fold change /veh VPS37D (11726825_at) / RFU C10orf10 (11716522_x_at) / Fold change /veh C10orf10 (11716522_x_at) / RFU KIR2DL2 /// KIR2DL4 /// KIR2DL5A /// KIR2DL5B /// KIR2DS1 /// KIR2DS2 /// KIR2DS3 /// KIR2DS4 /// KIR3DL3 /// KIR3DL3 /// KIR3DS1 (11738374_at) / Fold change /veh KIR2DL2 /// KIR2DL4 /// KIR2DL5A /// KIR2DL5B /// KIR2DS1 /// KIR2DS2 /// KIR2DS3 /// KIR2DS4 /// KIR3DL3 /// KIR3DL3 /// KIR3DS1 (11738374_at) / RFU C1QL1 (11718748_at) / Fold change /veh C1QL1 (11718748_at) / RFU TMPRSS4 (11747572_a_at) / Fold change /veh TMPRSS4 (11747572_a_at) / RFU HAMP (11756126_x_at) / Fold change /veh HAMP (11756126_x_at) / RFU RNFT2 (11725882_a_at) / Fold change /veh RNFT2 (11725882_a_at) / RFU NR4A2 (11747474_a_at) / Fold change /veh NR4A2 (11747474_a_at) / RFU ABCC12 (11746883_a_at) / Fold change /veh ABCC12 (11746883_a_at) / RFU TMEM136 (11760407_x_at) / Fold change /veh TMEM136 (11760407_x_at) / RFU CLDN22 /// WWC2 (11732394_at) / Fold change /veh CLDN22 /// WWC2 (11732394_at) / RFU HLA-DPB1 (11760878_x_at) / Fold change /veh HLA-DPB1 (11760878_x_at) / RFU SPINT1 (11716480_a_at) / Fold change /veh SPINT1 (11716480_a_at) / RFU GAP43 (11754022_s_at) / Fold change /veh GAP43 (11754022_s_at) / RFU A4GNT (11735810_at) / Fold change /veh A4GNT (11735810_at) / RFU PRB3 (11715151_x_at) / Fold change /veh PRB3 (11715151_x_at) / RFU TUBB4B (11761932_at) / Fold change /veh TUBB4B (11761932_at) / RFU CAPN14 (11732068_a_at) / Fold change /veh CAPN14 (11732068_a_at) / RFU TMCC2 (11721928_a_at) / Fold change /veh TMCC2 (11721928_a_at) / RFU IRGQ (11745062_a_at) / Fold change /veh IRGQ (11745062_a_at) / RFU FAM174B (11720279_a_at) / Fold change /veh FAM174B (11720279_a_at) / RFU TMPRSS4 (11748680_a_at) / Fold change /veh TMPRSS4 (11748680_a_at) / RFU FAM212B (11763350_a_at) / Fold change /veh FAM212B (11763350_a_at) / RFU PLEKHG5 (11743358_a_at) / Fold change /veh PLEKHG5 (11743358_a_at) / RFU ZSCAN30 (11745921_a_at) / Fold change /veh ZSCAN30 (11745921_a_at) / RFU CMKLR1 (11741424_a_at) / Fold change /veh CMKLR1 (11741424_a_at) / RFU LOC101060620 /// MAPK8IP1 (11723275_at) / Fold change /veh LOC101060620 /// MAPK8IP1 (11723275_at) / RFU SPTSSB (11747773_x_at) / Fold change /veh SPTSSB (11747773_x_at) / RFU PRSS12 (11739890_at) / Fold change /veh PRSS12 (11739890_at) / RFU BIN1 (11741810_x_at) / Fold change /veh BIN1 (11741810_x_at) / RFU WNT11 (11732464_a_at) / Fold change /veh WNT11 (11732464_a_at) / RFU C10orf10 (11716521_a_at) / Fold change /veh C10orf10 (11716521_a_at) / RFU C5orf56 (11738089_at) / Fold change /veh C5orf56 (11738089_at) / RFU CYB561 (11721691_x_at) / Fold change /veh CYB561 (11721691_x_at) / RFU ANKRD19P (11752326_a_at) / Fold change /veh ANKRD19P (11752326_a_at) / RFU OR2T12 /// OR2T33 /// OR2T8 (11738714_s_at) / Fold change /veh OR2T12 /// OR2T33 /// OR2T8 (11738714_s_at) / RFU VCAN (11748164_a_at) / Fold change /veh VCAN (11748164_a_at) / RFU JSRP1 (11732532_at) / Fold change /veh JSRP1 (11732532_at) / RFU KRTAP10-11 (11738290_x_at) / Fold change /veh KRTAP10-11 (11738290_x_at) / RFU MYO3A (11730013_a_at) / Fold change /veh MYO3A (11730013_a_at) / RFU EBF3 (11725865_a_at) / Fold change /veh EBF3 (11725865_a_at) / RFU CAMK2N1 (11719241_x_at) / Fold change /veh CAMK2N1 (11719241_x_at) / RFU C5orf56 (11738088_a_at) / Fold change /veh C5orf56 (11738088_a_at) / RFU OLFML3 (11715873_a_at) / Fold change /veh OLFML3 (11715873_a_at) / RFU LOC100653217 /// NTM (11731650_a_at) / Fold change /veh LOC100653217 /// NTM (11731650_a_at) / RFU MAPK11 (11762145_a_at) / Fold change /veh MAPK11 (11762145_a_at) / RFU FIZ1 (11724087_x_at) / Fold change /veh FIZ1 (11724087_x_at) / RFU OASL (11726364_x_at) / Fold change /veh OASL (11726364_x_at) / RFU SOX15 (11748057_x_at) / Fold change /veh SOX15 (11748057_x_at) / RFU CD79A (11719716_a_at) / Fold change /veh CD79A (11719716_a_at) / RFU HIST1H1D (11736915_at) / Fold change /veh HIST1H1D (11736915_at) / RFU CASKIN2 (11723855_a_at) / Fold change /veh CASKIN2 (11723855_a_at) / RFU LOC730098 (11760151_x_at) / Fold change /veh LOC730098 (11760151_x_at) / RFU OR4N2 (11742367_at) / Fold change /veh OR4N2 (11742367_at) / RFU PRRT2 (11749266_a_at) / Fold change /veh PRRT2 (11749266_a_at) / RFU SNX32 (11753110_a_at) / Fold change /veh SNX32 (11753110_a_at) / RFU CDHR5 (11726645_a_at) / Fold change /veh CDHR5 (11726645_a_at) / RFU RCAN1 (11760418_a_at) / Fold change /veh RCAN1 (11760418_a_at) / RFU FAM167A (11723789_a_at) / Fold change /veh FAM167A (11723789_a_at) / RFU FAM26E (11764081_at) / Fold change /veh FAM26E (11764081_at) / RFU ISYNA1 (11749810_s_at) / Fold change /veh ISYNA1 (11749810_s_at) / RFU ACY1 (11761880_at) / Fold change /veh ACY1 (11761880_at) / RFU 11764098_at / Fold change /veh 11764098_at / RFU SAMD14 (11745864_x_at) / Fold change /veh SAMD14 (11745864_x_at) / RFU NPB (11741838_a_at) / Fold change /veh NPB (11741838_a_at) / RFU TMPRSS6 (11731388_a_at) / Fold change /veh TMPRSS6 (11731388_a_at) / RFU KRTAP10-2 (11738614_at) / Fold change /veh KRTAP10-2 (11738614_at) / RFU ARHGAP8 /// PRR5-ARHGAP8 (11727945_x_at) / Fold change /veh ARHGAP8 /// PRR5-ARHGAP8 (11727945_x_at) / RFU KRTAP5-7 /// NADSYN1 (11734609_at) / Fold change /veh KRTAP5-7 /// NADSYN1 (11734609_at) / RFU RASL12 (11751679_a_at) / Fold change /veh RASL12 (11751679_a_at) / RFU CDKN2B (11736163_a_at) / Fold change /veh CDKN2B (11736163_a_at) / RFU PRF1 (11729649_at) / Fold change /veh PRF1 (11729649_at) / RFU, ZNF638 /// ZNF638-IT1 / Fold change vs veh, ZNF638 /// ZNF638-IT1 / RFU, PANK3 / Fold change vs veh, PANK3 / RFU, SH3YL1 / Fold change vs veh, SH3YL1 / RFU, ZEB2 / Fold change vs veh, ZEB2 / RFU, NRIP1 / Fold change vs veh, NRIP1 / RFU, PTTG1IP / Fold change vs veh, PTTG1IP / RFU, CAPN2 / Fold change vs veh, CAPN2 / RFU, MED14 / Fold change vs veh, MED14 / RFU, SNORA58 / Fold change vs veh, SNORA58 / RFU, C1orf63 / Fold change vs veh, C1orf63 / RFU, LRRFIP1 / Fold change vs veh, LRRFIP1 / RFU, NDUFAF7 / Fold change vs veh, NDUFAF7 / RFU, SLC12A2 / Fold change vs veh, SLC12A2 / RFU, IBTK / Fold change vs veh, IBTK / RFU, ESF1 / Fold change vs veh, ESF1 / Fold change vs veh, TMEM50B / RFU, TAOK1 / Fold change vs veh, TAOK1 / RFU, ACBD3 / Fold change vs veh, ACBD3 / RFU, TMA16 / Fold change vs veh, TMA16 / RFU, RWDD3 / Fold change vs veh, RWDD3 / RFU, BCAT1 / Fold change vs veh, BCAT1 / RFU, EDEM3 / Fold change vs veh, EDEM3 / RFU, TMEM33 / Fold change vs veh, TMEM33 / RFU, WDR75 / Fold change vs veh, WDR75 / RFU, AHCTF1 / Fold change vs veh, AHCTF1 / RFU, TFRC / Fold change vs veh, TFRC / RFU, ZDHHC17 / Fold change vs veh, ZDHHC17 / RFU, NOM1 / Fold change vs veh, NOM1 / RFU, ARL8B / Fold change vs veh, ARL8B / RFU, ZBTB11 / Fold change vs veh, ZBTB11 / RFU, TAMM41 / Fold change vs veh, TAMM41 / RFU, KIAA1704 /// LOC100996395 / Fold change vs veh, KIAA1704 /// LOC100996395 / RFU, ING1 / Fold change vs veh, ING1 / RFU, TRMT61B / Fold change vs veh, TRMT61B / RFU, FUBP3 / Fold change vs veh, FUBP3 / RFU, TP53 / Fold change vs veh, TP53 / RFU, TNKS2 / Fold change vs veh, TNKS2 / RFU, ZFP14 / Fold change vs veh, ZFP14 / RFU, ACTR2 / Fold change vs veh, ACTR2 / RFU, PPP3R1 / Fold change vs veh, PPP3R1 / RFU, PIK3R1 / Fold change vs veh, PIK3R1 / RFU, HNRNPA1 / Fold change vs veh, HNRNPA1 / RFU, RNF170 / Fold change vs veh, RNF170 / RFU, ZNF28 / Fold change vs veh, ZNF28 / RFU, RNGTT / Fold change vs veh, RNGTT / RFU, OGT / Fold change vs veh, OGT / RFU, BRD1 / Fold change vs veh, BRD1 / RFU, MARS / Fold change vs veh, MARS / RFU, ZNF655 / Fold change vs veh, ZNF655 / RFU, FAHD1 / Fold change vs veh, FAHD1 / RFU, BDP1 / Fold change vs veh, BDP1 / RFU, LRRCC1 / Fold change vs veh, LRRCC1 / RFU, ARID1A / Fold change vs veh, ARID1A / RFU, ZNF146 / Fold change vs veh, ZNF146 / RFU, ZNF330 / Fold change vs veh, ZNF330 / RFU, GPN3 / Fold change vs veh, GPN3 / RFU, C9orf123 / Fold change vs veh, C9orf123 / RFU, N4BP2L2 / Fold change vs veh, N4BP2L2 / RFU, ARFIP1 / Fold change vs veh, ARFIP1 / RFU, FAM179B / Fold change vs veh, FAM179B / RFU, BCL10 / Fold change vs veh, BCL10 / RFU, UHRF1BP1L / Fold change vs veh, UHRF1BP1L / RFU, BET1 / Fold change vs veh, BET1 / RFU, CNOT2 / Fold change vs veh, CNOT2 / RFU, ZNF268 / Fold change vs veh, ZNF268 / Fold change vs veh, ZNF507 / RFU, DGCR2 / Fold change vs veh, DGCR2 / RFU, WDSUB1 / Fold change vs veh, WDSUB1 / Fold change vs veh, HSP90B1 /// MIR3652 / RFU, ADSS / Fold change vs veh, ADSS / RFU, GK / Fold change vs veh, GK / RFU, ZNF148 / Fold change vs veh, ZNF148 / RFU, TAF9 / Fold change vs veh, TAF9 / RFU, SLC1A5 / Fold change vs veh, SLC1A5 / RFU, SLMO2 / Fold change vs veh, SLMO2 / RFU, ABCC4 / Fold change vs veh, ABCC4 / RFU, LOC101060439 /// RAP1B / Fold change vs veh, LOC101060439 /// RAP1B / RFU, RFX7 / Fold change vs veh, RFX7 / RFU, GTPBP10 / Fold change vs veh, GTPBP10 / RFU, CNEP1R1 / Fold change vs veh, CNEP1R1 / RFU, BIVM-ERCC5 /// ERCC5 / Fold change vs veh, BIVM-ERCC5 /// ERCC5 / RFU, ILF3 / Fold change vs veh, ILF3 / RFU 11762660_at / Fold change /veh 11762660_at / RFU VCAN (11757783_s_at) / Fold change /veh VCAN (11757783_s_at) / RFU DDX43 (11728927_at) / Fold change /veh DDX43 (11728927_at) / RFU KRT8 (11758188_x_at) / Fold change /veh KRT8 (11758188_x_at) / RFU NKD1 (11759106_at) / Fold change /veh NKD1 (11759106_at) / RFU SRD5A1 (11742802_a_at) / Fold change /veh SRD5A1 (11742802_a_at) / RFU TPSAB1 /// TPSB2 (11721975_s_at) / Fold change /veh TPSAB1 /// TPSB2 (11721975_s_at) / RFU GSTM3 (11746129_a_at) / Fold change /veh GSTM3 (11746129_a_at) / RFU IL23R (11737362_x_at) / Fold change /veh IL23R (11737362_x_at) / RFU TMEM51 (11727254_a_at) / Fold change /veh TMEM51 (11727254_a_at) / RFU PIWIL2 (11732686_x_at) / Fold change /veh PIWIL2 (11732686_x_at) / RFU ORM1 (11744905_x_at) / Fold change /veh ORM1 (11744905_x_at) / RFU CCDC152 (11743942_at) / Fold change /veh CCDC152 (11743942_at) / RFU ECM1 (11717891_a_at) / Fold change /veh ECM1 (11717891_a_at) / RFU IL23R (11748794_a_at) / Fold change /veh IL23R (11748794_a_at) / RFU TNFAIP8L3 (11732012_x_at) / Fold change /veh TNFAIP8L3 (11732012_x_at) / RFU MBOAT4 (11741988_at) / Fold change /veh MBOAT4 (11741988_at) / RFU 11764193_at / Fold change /veh 11764193_at / RFU TMEM53 (11763286_at) / Fold change /veh TMEM53 (11763286_at) / RFU MAGEB2 (11727129_at) / Fold change /veh MAGEB2 (11727129_at) / RFU TMEM200A (11744735_a_at) / Fold change /veh TMEM200A (11744735_a_at) / RFU CCDC152 (11751479_a_at) / Fold change /veh CCDC152 (11751479_a_at) / RFU FAM211A (11726209_a_at) / Fold change /veh FAM211A (11726209_a_at) / RFU RGS16 (11746705_a_at) / Fold change /veh RGS16 (11746705_a_at) / RFU VCAN (11755009_s_at) / Fold change /veh VCAN (11755009_s_at) / RFU RHOB (11743442_s_at) / Fold change /veh RHOB (11743442_s_at) / RFU RGS16 (11720943_a_at) / Fold change /veh RGS16 (11720943_a_at) / RFU RGS16 (11720944_at) / Fold change /veh RGS16 (11720944_at) / RFU, VPS4B / Fold change vs veh, VPS4B / RFU, CREB1 / Fold change vs veh, CREB1 / RFU, DNAJC13 / Fold change vs veh, DNAJC13 / RFU, GNAQ / Fold change vs veh, GNAQ / RFU, CDK5R1 / Fold change vs veh, CDK5R1 / RFU, ZRANB3 / Fold change vs veh, ZRANB3 / RFU, CUL4A / Fold change vs veh, CUL4A / RFU, CCNY / Fold change vs veh, CCNY / RFU, UFL1 / Fold change vs veh, UFL1 / RFU, COG3 / Fold change vs veh, COG3 / RFU, DIAPH2 / Fold change vs veh, DIAPH2 / RFU, SKA2 / Fold change vs veh, SKA2 / RFU, AFF3 / Fold change vs veh, AFF3 / RFU, LMF1 / Fold change vs veh, LMF1 / RFU, IPO11 / Fold change vs veh, IPO11 / RFU, DFFB / Fold change vs veh, DFFB / RFU, FOXP1 / Fold change vs veh, FOXP1 / RFU, CARD8 / Fold change vs veh, CARD8 / RFU, STRN3 / Fold change vs veh, STRN3 / RFU, ADK / Fold change vs veh, ADK / RFU, RASSF2 / Fold change vs veh, RASSF2 / RFU, WIPF1 / Fold change vs veh, WIPF1 / RFU, LARP1B / Fold change vs veh, LARP1B / RFU, RASA1 / Fold change vs veh, RASA1 / RFU, RB1 / Fold change vs veh, RB1 / RFU, PPFIA1 / Fold change vs veh, PPFIA1 / RFU, MAT2A / Fold change vs veh, MAT2A / RFU, CCT5 / Fold change vs veh, CCT5 / RFU, WDR92 / Fold change vs veh, WDR92 / RFU, CUX1 / Fold change vs veh, CUX1 / RFU, TTC7A / Fold change vs veh, TTC7A / RFU, TMEM135 / Fold change vs veh, TMEM135 / RFU, DEPTOR / Fold change vs veh, DEPTOR / RFU, CPM / Fold change vs veh, CPM / RFU, DNAJB6 / Fold change vs veh, DNAJB6 / RFU, CACNA2D3 / Fold change vs veh, CACNA2D3 / RFU, DTX4 / Fold change vs veh, DTX4 / RFU, TFCP2 / Fold change vs veh, TFCP2 / RFU, GMCL1 /// GMCL1P1 / Fold change vs veh, GMCL1 /// GMCL1P1 / RFU, AEBP2 / Fold change vs veh, AEBP2 / RFU, SNHG1 /// SNORD22 /// SNORD25 /// SNORD26 /// SNORD27 /// SNORD28 /// SNORD29 /// SNORD31 / Fold change vs veh, SNHG1 /// SNORD22 /// SNORD25 /// SNORD26 /// SNORD27 /// SNORD28 /// SNORD29 /// SNORD31 / Fold change (Aza/veh), C12orf56 (ProbeSet 11735607_a_at) / Fold change (ACY-1035/veh), C12orf56 (ProbeSet 11735607_a_at) / Fold change (Aza/veh), FGFR1OP (ProbeSet 11751329_s_at) / Fold change (ACY-1035/veh), FGFR1OP (ProbeSet 11751329_s_at) / Fold change (Aza/veh), VPS36 (ProbeSet 11739960_a_at) / Fold change (ACY-1035/veh), VPS36 (ProbeSet 11739960_a_at) / RFU SYPL1 (11715823_x_at) / Fold change /veh SYPL1 (11715823_x_at) / RFU IGFBP7 (11715501_s_at) / Fold change /veh IGFBP7 (11715501_s_at) / RFU REEP3 (11722064_at) / Fold change /veh REEP3 (11722064_at) / RFU IGLL1 (11728026_x_at) / Fold change /veh IGLL1 (11728026_x_at): dose or concentration left out as unconfirmed
# Conditions: MV-4-11 cells, 48 hours
structure (smiles),measurement,value
Nc1ncn([C@@H]2O[C@H](CO)[C@@H](O)[C@H]2O)c(=O)n1 [azacitidine],Fold change /veh CD79A (11719716_a_at),0.94
